In brackets after ≈: the same amount, converted by molar mass. Like-named read-outs stand apart in the source and are kept apart here.
Key:
Test in all cases: Minimal growth inhibitory concentration (MIC), serial dilution in broth, agent alone
Assay type in all cases: cell-based
[1] = tested on: Streptococcus sanguis ATCC 19558; conditions: Experiment 5, S. sanguis, chlorhexidine as free base concentration
Experimental: (§1) MINIMAL GROWTH INHIBITORY CONCENTRATION
(§2) The minimal inhibitory concentration (MIC) of the test compound is the minimum concentration of compound required to inhibit growth of the test organism. The MIC is determined by serially diluting the test solution through tubes of sterile broth. The tubes are inoculated and incubated at 37°C for 48 hours. At the end of the incubation time, growth is checked macroscopically. The lowest concentration of test compound to inhibit growth is the MIC.

[2] = tested on: Actinomyces viscosus T14V; conditions: Experiment 6, A. viscosus, chlorhexidine as free base concentration
Experimental: as §1, §2

[3] = tested on: Streptococcus mutans ATCC 25175; conditions: for MIC in w/w%: chlorhexidine as free base concentration; for MIC: Streptococcus mutans, ATCC25175, 48 h, read-out: MIC (micro g/ml)
Experimental: as §1, §2

[4] = tested on: Candida albicans ATCC 18804; conditions: Experiment 7, C. Albicans, chlorhexidine as free base concentration
Experimental: as §1, §2

[5] = Experiments A-D, agent alone, 37°C, 48 hours

`[H]/N=C(\N/C(=N/[H])NCCCCCCNC(=N)NC(=N)Nc1ccc(Cl)cc1)Nc1ccc(Cl)cc1` [Chlorhexidine, 1,6-di(p-chlorophenylbiguanido)hexane] was tested, and the “MIC (w/w%)” value [1] was 3.4x10^-4 w/w%, the “MIC (w/w%)” value [2] was 4.4x10^-5 w/w% and the MIC in w/w% ([3]; Experiment 1, agent alone, 37°C, 48 hours) was 2.2x10^-5 w/w%. The MIC in w/w% ([3]; Experiment 2, agent alone, 37°C, 48 hours) was 2.2x10^-5 w/w%, the MIC in w/w% ([3]; Experiment 3, agent alone, 37°C, 48 hours) was 2.8x10^-5 w/w% and the MIC in w/w% ([3]; Experiment 4, agent alone, 37°C, 48 hours) was 2.25x10^-5 w/w%. The MIC [3, 5] was 0.25 mg/L (≈ 0.495 µM) and the “MIC (w/w%)” value [4] was 3.5x10^-4 w/w%.
Molecule `CC12CCC(CC1)C(C)(C)O2` [Eucalyptol] has an MIC [3, 5] of 58 mg/L (≈ 376 µM).
`CC1CCC(C(C)C)C(O)C1` (stereo not drawn) [Menthol] showed an MIC [3] of 30 mg/L (≈ 192 µM).
With `COC(=O)c1ccccc1O` [Methyl Salicylate] the MIC [3] was 35 mg/L (≈ 230 µM).
In the case of `Cc1ccc(C(C)C)c(O)c1` [Thymol], the MIC [3, 5] is reported as 80 mg/L (≈ 533 µM).

— patent EP0244363A1, “Composition and method to inhibit the growth of organisms by the use of bis-biguanido hexanes and essential oil mixture combinations” (WARNER-LAMBERT COMPANY, priority 1986, dated 1987)
